Our source for the IC50 and GI50 values is patent US8242280B2, “Fused ring heterocycle kinase modulators” (SGX Pharmaceuticals, Inc., priority 2007, dated 2012).

Assay [1] has as its target T1, unphosphorylated T315I Abl kinase domain (Mus musculus, UniProt P00520, T315I).
T1 construct: purified and unphosphorylated T315I Abl kinase domain; made in house; host or cells: E. coli BL21(DE3) (Codon+RIL or pSA0145 strain)
T1 sequence (P00520 242-493 T315I limits assumed): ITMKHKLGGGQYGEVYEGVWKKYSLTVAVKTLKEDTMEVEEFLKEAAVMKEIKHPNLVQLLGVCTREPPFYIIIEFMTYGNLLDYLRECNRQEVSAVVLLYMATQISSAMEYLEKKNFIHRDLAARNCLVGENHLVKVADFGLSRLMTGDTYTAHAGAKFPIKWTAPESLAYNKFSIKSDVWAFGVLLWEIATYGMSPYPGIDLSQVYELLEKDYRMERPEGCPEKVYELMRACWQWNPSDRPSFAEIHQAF
Put plainly: c-Abl T315I 0P bioassay (pyruvate kinase/lactate dehydrogenase coupled enzyme assay). The assay is classed as biochemical. The note with it: zero phosphorylation state (0P), 10 μM ATP, read-out: AbI T315I 0P IC50.

For another assay, the target named is Ba/F3 cells, ABL1 T315I (Homo sapiens, UniProt P00519, T315I, cells depend on it). Put plainly: 96-well XTT cell survival assay, Ba/F3 ABL1 T315I. The assay is classed as cell-based. Conditions: 72 hours, read-out: ABL1 T315I XTT [Ba/F3] IC50. Put shortly:
(§1)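 Ba/F3 cells carrying wild-type or T315I ABL1 were seeded at 5000-8000 per well with graded compound concentrations in duplicate and grown 72 hours at 37° C. Survival was read by XTT/PMS reduction after a further 2-6 h, as absorbance at 405 nm with 650 nm background correction.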
(In general: Formazan colour is commonly taken as a measure of viable cells.)

Another assay deals with Ba/F3 cells, ABL1 WT (Homo sapiens, UniProt P00519). Description: 96-well XTT cell survival assay, Ba/F3 ABL1 WT. It is filed as cell-based. Conditions: 72 hours, read-out: ABL1 WT XTT [Ba/F3] IC50. Summed up: as §1

Molecules are shown by their SMILES.

With `COc1ccccc1-c1n[nH]c2ncc(-c3cccc(C(O)CO)c3)cc12` (stereo not drawn), the IC50 (in general, the concentration at which inhibition is half-maximal) in assay [1] was < 50 nM. The GI50 at Ba/F3 cells, ABL1 T315I was > 1000 nM; at Ba/F3 cells, ABL1 WT it was < 1000 nM.
